Test results as given in patent US20260000642A1 (Tay Therapeutics Limited, priority 2022, published 2026).
Where “and” joins values, the source holds several entries; their conditions need not be identical. Equal values may be shown once.

Assays:
[1] = system: rat anti-collagen IgG1 antibodies; assay: CIA model: rat anti-collagen IgG1 antibodies in serum at day 21; format: in vivo, Lewis rat; conditions: for levels of rat anti-collagen IgG1 antibodies relative to CIA without treatment: day 21
Procedure: Blood was additionally collected from groups 1-7 via cardiac puncture following euthanasia on Day 21. Blood from cardiac puncture was placed in a 1.5 mL centrifuge tube without an anticoagulant and centrifuged at 8000 rcf for 15 minutes. Serum was divided into two separate tubes and stored at −75±15° C. One tube was used to analyze IgG1, and the other tube was reserved for additional analyses.
All data measured and recorded was analyzed using SPSS 16.0 software. Groups were compared using one-way ANOVA and significance was set at p<0.05.

[2] = system: collagen-induced arthritis in Lewis rats; assay: CIA model: histopathologic analysis of H&E-stained hind limbs; format: in vivo, Lewis rat
Source text: Hind limbs were collected following euthanasia, with the left limb being used for H&E staining.
H&E-stained slides of designated tissues from animals were transferred to an independent pathologist for microscopic evaluation (SPFBio). Samples were assigned the histologic grades based on the severity of change from tissue where CIA was not induced. Histology grades assigned were as follows: grade 1 (minimal change), grade 2 (mild change), grade 3 (moderate change), grade 4 (marked change), and grade 5 (severe change).
Moderate inflammation was also associated with increased edema fluid, fibrin, and cellular debris. Marked mixed cell inflammation was characterized by dense, widespread accumulations of neutrophils and macrophages with lesser number of lymphocytes within one or more joint spaces, synovium and periarticular soft tissues. Marked inflammation was also associated with abundant edema fluid, fibrin, and cellular debris.
Marked granulation tissue (pannus) was associated with inflammation and was characterized by widespread fibrovascular connective tissue that expanded/replaced the periarticular soft tissues of one or more joints, extended into/expanded joint spaces, was contiguous with areas of erosion/ulcer in articular cartilage and/or increased eroded surface of bone, and variably extended along the diaphysis.
Instances of minimal increased eroded surface were not associated with fragments of bone contiguous and/or surrounded by granulation tissue. […] In some areas, increased eroded surfaces were contiguous with areas of erosion/ulcer in the articular cartilages. Instance of marked increased eroded surface were often associated with fragments of bone contiguous with and/or surrounded by granulation tissue.
This observation was typically most pronounced at joint margins (transition zone). The ulceration was often associated with inflammation and granulation tissue extending through the defect to the subchondral bone.
Marked increased periosteal bone (periosteal bone formation) was characterized by extensive areas of increased bone matrix and numerous prominent osteoblasts lining trabecular surfaces along the metaphysis and/or diaphysis of one or more bones. In some areas, increased periosteal bone was contiguous with increased eroded surface and/or erosion/ulcer at articular cartilage.

[3] = CIA rats, 30 mg/kg (Group 7), seven of eight samples
[4] = hind limbs, CIA induced, 8 animals examined, comparator groups 3-4, dose not given

In the case of `CNC(=O)c1[nH]c(C(=O)NC2CCC2)cc1O[C@@H](C)c1ccccc1` [Example 101, N^5-cyclobutyl-N^2-methyl-3-(1-phenylethoxy)-1H-pyrrole-2,5-dicarboxamide], the “levels of rat anti-collagen IgG1 antibodies relative to CIA without treatment” value ([1]; 1 mg/kg, p<0.05) is reported as “significantly decreased”, the “levels of rat anti-collagen IgG1 antibodies relative to CIA without treatment” value ([1]; 10 mg/kg, p<0.05) is reported as “significantly decreased” and the “levels of rat anti-collagen IgG1 antibodies relative to CIA without treatment” value ([1]; 30 mg/kg, p<0.01) is reported as “significantly decreased”. The “articular cartilage erosion or ulcers” value ([2]; CIA rats, 3 mg/kg (Group 5)) was “mild to moderate”, the “granulation tissue (pannus)” value ([2]; CIA rats, 3 mg/kg (Group 5)) was “mild to moderate” and the “increased eroded surface of bone (bone resorption)” value (“increased eroded surface of bone” below) ([2]; CIA rats, 3 mg/kg (Group 5)) was “mild to moderate”. The “increased periosteal bone (periosteal bone formation)” value (“increased periosteal bone” below) ([2]; CIA rats, 3 mg/kg (Group 5)) was “mild to moderate”, the mixed cell inflammation ([2]; CIA rats, 3 mg/kg (Group 5)) was “moderate to marked” and the “erosion in the articular cartilages” value ([2]; CIA rats, 10 mg/kg (Group 6)) was “moderate”. For the same molecule, the “granulation tissue (pannus)” value ([2]; CIA rats, 10 mg/kg (Group 6)) was “moderate”, the “increased eroded surface of bone” value ([2]; CIA rats, 10 mg/kg (Group 6)) was “moderate” and the “increased periosteal bone” value ([2]; CIA rats, 10 mg/kg (Group 6)) was “moderate”. The mixed cell inflammation ([2]; CIA rats, 10 mg/kg (Group 6)) was “moderate”, the “samples with no recorded pathological observations” value ([2]; CIA rats, 30 mg/kg (Group 7)) was “One out of eight samples” and the “erosion in the articular cartilages” value [2, 3] was “mild”. The “granulation tissue (pannus)” value [2, 3] was “moderate”, the “increased eroded surface of bone” value [2, 3] was “mild” and the “increased periosteal bone” value [2, 3] was “mild”. The mixed cell inflammation [2, 3] was “moderate”, the “pathologic observations after microscopic evaluation (overall)” value ([2]; CIA rats, Groups 5-7 (3, 10, 30 mg/kg)) was “at lower levels relative to samples from animals in the CIA-induced group (Group 2) in a dose-dependent manner” and the “Erosion/Ulcer, cartilaginous, Mild, number of animals” value ([2]; hind limbs, CIA induced, 8 animals examined, 30 mg/kg (Group 7)) was 4.

With `C[C@@H]1C[C@H]2[C@@H]3CCC4=CC(=O)C=C[C@]4(C)[C@@]3(F)[C@@H](O)C[C@]2(C)[C@@]1(O)C(=O)CO` [dexamethasone] the “Rat Anti-Collagen IgG1 Antibody Con.” value ([1]; day 21 serum, reference group (Dexamethasone or GSK620), before fold 2000 correction, individual animals) was 11.01 units/ml and 2.63 units/ml and 0.65 units/ml and 1.27 units/ml and 5.87 units/ml and 2.28 units/ml and 3.96 units/ml and 3.67 units/ml, the “Final Rat Anti-Collagen IgG1 Antibody Con.” value ([1]; day 21 serum, reference group (Dexamethasone or GSK620), individual animals) was 22019.88 units/ml and 5250.27 units/ml and 1296.14 units/ml and 2541.14 units/ml and 4553.59 units/ml and 7925.50 units/ml and 7346.16 units/ml and the “Erosion/Ulcer, cartilaginous, Marked, number of animals” value [2, 4] was 0. For the same molecule, the “Erosion/Ulcer, cartilaginous, Mild, number of animals” value [2, 4] was 0, the “Erosion/Ulcer, cartilaginous, Minimal, number of animals” value [2, 4] was 0 and the “Erosion/Ulcer, cartilaginous, Moderate, number of animals” value [2, 4] was 0. For the same molecule, the “Granulation tissue, Marked, number of animals” value [2, 4] was 0, the “Granulation tissue, Mild, number of animals” value [2, 4] was 0 and the “Granulation tissue, Minimal, number of animals” value [2, 4] was 0. The “Granulation tissue, Moderate, number of animals” value [2, 4] was 0, the “Increased bone, periosteum, Marked, number of animals” value [2, 4] was 0 and the “Increased bone, periosteum, Mild, number of animals” value [2, 4] was 0. For the same molecule, the “Increased bone, periosteum, Minimal, number of animals” value [2, 4] was 0, the “Increased bone, periosteum, Moderate, number of animals” value [2, 4] was 0 and the “Increased eroded surface, bone, Marked, number of animals” value [2, 4] was 0. The “Increased eroded surface, bone, Mild, number of animals” value [2, 4] was 0, the “Increased eroded surface, bone, Minimal, number of animals” value [2, 4] was 0 and the “Increased eroded surface, bone, Moderate, number of animals” value [2, 4] was 0. For the same molecule, the “Mixed cell inflammation, Marked, number of animals” value [2, 4] was 0, the “Mixed cell inflammation, Mild, number of animals” value [2, 4] was 0 and the “Mixed cell inflammation, Minimal, number of animals” value [2, 4] was 0. The “Mixed cell inflammation, Moderate, number of animals” value [2, 4] was 0 and the “No Visible Lesions, number of animals” value [2, 4] was 8.
